Laboratory results taken from ChEMBL document CHEMBL1955729, “N⁴-(3-Bromophenyl)-7-(substituted benzyl) pyrrolo[2,3-d]pyrimidines as potent multiple receptor tyrosine kinase inhibitors: design, synthesis, and in vivo evaluation” (Bioorg Med Chem, 2012).
Calls of active or inactive are those of the source. No cut-off for these calls is given here.

Experiments:
[1] = target: Epidermal growth factor receptor (Homo sapiens, UniProt P00533)
[2] = target: T1, Platelet-derived growth factor receptor beta (Homo sapiens, UniProt P09619); assay: Inhibition of PDGFBB-induced PDGFRbeta autophosphorylation in human SF539 cells incubated for 60 mins prior to PDGFBB-induction measured after 10 mins by phosphotyrosine ELISA; format: cell-based, SF-539
[3] = target: T2, Vascular endothelial growth factor receptor 1 (Homo sapiens, UniProt P17948)
[4] = target: T3, Vascular endothelial growth factor receptor 2 (Homo sapiens, UniProt P35968)
COLO 205 [5] = assay: Antitumor activity against human COLO205 cells xenografted in athymic NIH-II mouse assessed as decrease in tumor growth rate at 10 mg/kg, ip administered 3 days per week relative to control; format: functional, organism-based; set-up: dose 10 mg/kg
COLO 205 [6] = assay: Antiangiogenic activity in human COLO205 cells xenografted in athymic NIH-II mouse at 10 mg/kg, ip administered 3 days per week by hematoxylin and eosin staining relative to control; format: functional, organism-based; set-up: dose 10 mg/kg
COLO 205 [7] = assay: Antimetastatic activity against human COLO205 cells xenografted in athymic NIH-II mouse at 10 mg/kg, ip administered for 3 days per week by hematoxylin and eosin staining; format: functional, organism-based; set-up: dose 10 mg/kg
Mus musculus = assay: (§1) Toxicity in NCr nu/nu mouse assessed as body weight loss administered for 3 days per week measured after 6 weeks; format: organism-based; conditions: in vivo, 1008 h
[8] = target: T3, Vascular endothelial growth factor receptor 2; remark: listed apart in the source
[9] = target: T1, Platelet-derived growth factor receptor beta
[10] = target: T2, Vascular endothelial growth factor receptor 1; remark: listed apart in the source
COLO 205 [11] = assay: Antimetastatic activity against human COLO205 cells xenografted in athymic NIH-II mouse at 35 mg/kg, ip administered for 3 days per week by hematoxylin and eosin staining; format: functional, organism-based; set-up: dose 35 mg/kg
COLO 205 [12] = assay: Antitumor activity against human COLO205 cells xenografted in athymic NIH-II mouse assessed as decrease in tumor growth rate at 35 mg/kg, ip administered 3 days per week relative to control; format: functional, organism-based; set-up: dose 35 mg/kg
COLO 205 [13] = assay: Antiangiogenic activity in human COLO205 cells xenografted in athymic NIH-II mouse at 35 mg/kg, ip administered 3 days per week by hematoxylin and eosin staining relative to control; format: functional, organism-based; set-up: dose 35 mg/kg
[14] = as §1; format: organism-based; conditions: NCr nu/nu, in vivo

T1 sequence (P09619 whole entry): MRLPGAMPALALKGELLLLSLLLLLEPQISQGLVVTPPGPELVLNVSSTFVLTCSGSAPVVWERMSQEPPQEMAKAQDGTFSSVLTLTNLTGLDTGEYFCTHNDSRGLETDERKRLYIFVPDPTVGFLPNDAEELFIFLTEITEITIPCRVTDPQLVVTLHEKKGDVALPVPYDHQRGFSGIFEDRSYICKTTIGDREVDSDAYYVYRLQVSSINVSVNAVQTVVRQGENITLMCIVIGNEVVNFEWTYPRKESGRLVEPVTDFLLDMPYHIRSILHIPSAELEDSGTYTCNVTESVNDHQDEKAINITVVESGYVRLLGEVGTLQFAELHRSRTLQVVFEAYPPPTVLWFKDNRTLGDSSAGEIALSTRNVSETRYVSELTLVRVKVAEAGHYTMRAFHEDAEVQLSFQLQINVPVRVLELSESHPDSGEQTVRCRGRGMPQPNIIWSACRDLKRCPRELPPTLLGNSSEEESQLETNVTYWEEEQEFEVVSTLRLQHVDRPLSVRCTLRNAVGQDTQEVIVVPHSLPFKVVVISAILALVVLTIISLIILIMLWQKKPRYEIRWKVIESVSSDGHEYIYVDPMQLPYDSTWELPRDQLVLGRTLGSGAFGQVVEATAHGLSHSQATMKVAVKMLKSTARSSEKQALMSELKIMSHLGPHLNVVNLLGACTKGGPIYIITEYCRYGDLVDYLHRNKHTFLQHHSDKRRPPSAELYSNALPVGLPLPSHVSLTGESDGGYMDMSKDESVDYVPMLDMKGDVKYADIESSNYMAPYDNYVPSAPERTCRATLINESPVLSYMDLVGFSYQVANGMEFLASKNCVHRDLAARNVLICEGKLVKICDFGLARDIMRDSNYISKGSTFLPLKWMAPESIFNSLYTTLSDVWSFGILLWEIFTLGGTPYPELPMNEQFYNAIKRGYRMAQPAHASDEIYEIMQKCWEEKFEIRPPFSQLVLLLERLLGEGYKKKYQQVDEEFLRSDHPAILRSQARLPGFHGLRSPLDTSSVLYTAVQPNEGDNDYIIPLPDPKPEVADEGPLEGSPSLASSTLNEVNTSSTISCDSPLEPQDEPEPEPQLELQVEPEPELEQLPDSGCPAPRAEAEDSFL
T3 sequence (P35968 whole entry): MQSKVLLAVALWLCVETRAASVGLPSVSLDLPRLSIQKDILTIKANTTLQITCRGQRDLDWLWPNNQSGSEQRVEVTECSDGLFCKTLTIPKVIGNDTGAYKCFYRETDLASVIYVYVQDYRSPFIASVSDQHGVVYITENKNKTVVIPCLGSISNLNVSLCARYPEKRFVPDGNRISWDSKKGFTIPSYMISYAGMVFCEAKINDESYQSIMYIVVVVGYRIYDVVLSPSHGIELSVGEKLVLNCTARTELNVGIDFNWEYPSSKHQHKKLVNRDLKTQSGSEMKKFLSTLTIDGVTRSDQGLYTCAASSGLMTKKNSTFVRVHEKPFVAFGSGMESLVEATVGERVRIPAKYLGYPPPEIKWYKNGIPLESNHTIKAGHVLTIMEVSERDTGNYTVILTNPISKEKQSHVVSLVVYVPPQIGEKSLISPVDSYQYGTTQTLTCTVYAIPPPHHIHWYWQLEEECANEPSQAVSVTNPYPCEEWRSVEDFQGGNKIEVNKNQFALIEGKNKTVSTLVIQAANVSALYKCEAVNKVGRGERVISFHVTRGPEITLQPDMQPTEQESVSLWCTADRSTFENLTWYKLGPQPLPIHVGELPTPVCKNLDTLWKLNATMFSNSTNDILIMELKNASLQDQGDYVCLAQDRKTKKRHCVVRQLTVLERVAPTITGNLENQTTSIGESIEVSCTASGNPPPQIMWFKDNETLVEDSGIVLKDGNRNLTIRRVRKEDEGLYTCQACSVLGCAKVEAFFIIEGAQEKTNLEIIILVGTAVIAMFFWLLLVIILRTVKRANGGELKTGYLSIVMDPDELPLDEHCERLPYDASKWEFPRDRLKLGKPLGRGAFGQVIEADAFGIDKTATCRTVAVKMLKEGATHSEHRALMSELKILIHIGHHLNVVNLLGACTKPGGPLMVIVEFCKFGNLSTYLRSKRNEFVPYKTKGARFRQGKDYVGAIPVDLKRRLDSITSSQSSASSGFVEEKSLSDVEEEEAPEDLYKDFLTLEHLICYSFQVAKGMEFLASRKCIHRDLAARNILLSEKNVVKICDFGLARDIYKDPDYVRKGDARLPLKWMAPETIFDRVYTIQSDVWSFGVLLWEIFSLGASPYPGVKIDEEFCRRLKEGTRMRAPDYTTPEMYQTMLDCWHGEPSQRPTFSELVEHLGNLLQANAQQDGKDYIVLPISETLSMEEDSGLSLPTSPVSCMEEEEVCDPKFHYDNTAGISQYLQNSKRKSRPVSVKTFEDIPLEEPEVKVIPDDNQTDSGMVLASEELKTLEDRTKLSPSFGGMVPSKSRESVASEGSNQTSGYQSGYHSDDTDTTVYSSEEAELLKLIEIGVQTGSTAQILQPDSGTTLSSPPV
T2 sequence (P17948 whole entry): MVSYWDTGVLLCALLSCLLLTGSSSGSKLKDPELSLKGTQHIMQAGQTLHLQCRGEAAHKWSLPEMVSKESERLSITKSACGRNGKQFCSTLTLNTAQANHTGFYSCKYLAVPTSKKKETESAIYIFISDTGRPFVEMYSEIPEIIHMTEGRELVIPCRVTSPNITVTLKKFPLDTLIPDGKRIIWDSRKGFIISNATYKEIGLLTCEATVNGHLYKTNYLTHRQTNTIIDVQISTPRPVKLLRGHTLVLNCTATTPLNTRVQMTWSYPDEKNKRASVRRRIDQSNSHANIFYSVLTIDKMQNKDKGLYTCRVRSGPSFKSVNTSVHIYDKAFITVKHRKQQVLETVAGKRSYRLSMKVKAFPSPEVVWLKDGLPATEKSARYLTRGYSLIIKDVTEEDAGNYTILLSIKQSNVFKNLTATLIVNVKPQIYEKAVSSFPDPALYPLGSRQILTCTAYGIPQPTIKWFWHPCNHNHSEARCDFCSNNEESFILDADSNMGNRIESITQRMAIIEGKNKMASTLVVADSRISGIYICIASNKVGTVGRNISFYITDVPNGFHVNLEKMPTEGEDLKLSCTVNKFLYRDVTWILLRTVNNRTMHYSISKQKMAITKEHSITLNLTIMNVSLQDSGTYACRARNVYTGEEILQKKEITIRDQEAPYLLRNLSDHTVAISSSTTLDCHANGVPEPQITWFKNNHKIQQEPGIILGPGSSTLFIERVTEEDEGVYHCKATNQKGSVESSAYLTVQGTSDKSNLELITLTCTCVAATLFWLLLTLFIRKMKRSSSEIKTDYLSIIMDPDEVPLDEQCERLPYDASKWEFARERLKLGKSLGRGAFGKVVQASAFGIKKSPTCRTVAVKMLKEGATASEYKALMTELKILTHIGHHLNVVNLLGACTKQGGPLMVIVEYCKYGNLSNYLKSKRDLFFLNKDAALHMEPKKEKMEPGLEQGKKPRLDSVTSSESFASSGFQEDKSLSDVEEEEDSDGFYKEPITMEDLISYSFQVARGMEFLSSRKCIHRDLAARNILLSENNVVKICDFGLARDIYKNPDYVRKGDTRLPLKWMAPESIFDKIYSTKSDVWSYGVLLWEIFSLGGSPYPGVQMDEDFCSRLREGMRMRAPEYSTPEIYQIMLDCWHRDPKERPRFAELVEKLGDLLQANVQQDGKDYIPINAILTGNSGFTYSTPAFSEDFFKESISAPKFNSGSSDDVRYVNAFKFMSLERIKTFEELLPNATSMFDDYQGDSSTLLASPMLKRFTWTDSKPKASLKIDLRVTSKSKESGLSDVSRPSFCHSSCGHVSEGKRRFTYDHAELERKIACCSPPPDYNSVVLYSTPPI
Epidermal growth factor receptor, sequence (P00533 whole entry): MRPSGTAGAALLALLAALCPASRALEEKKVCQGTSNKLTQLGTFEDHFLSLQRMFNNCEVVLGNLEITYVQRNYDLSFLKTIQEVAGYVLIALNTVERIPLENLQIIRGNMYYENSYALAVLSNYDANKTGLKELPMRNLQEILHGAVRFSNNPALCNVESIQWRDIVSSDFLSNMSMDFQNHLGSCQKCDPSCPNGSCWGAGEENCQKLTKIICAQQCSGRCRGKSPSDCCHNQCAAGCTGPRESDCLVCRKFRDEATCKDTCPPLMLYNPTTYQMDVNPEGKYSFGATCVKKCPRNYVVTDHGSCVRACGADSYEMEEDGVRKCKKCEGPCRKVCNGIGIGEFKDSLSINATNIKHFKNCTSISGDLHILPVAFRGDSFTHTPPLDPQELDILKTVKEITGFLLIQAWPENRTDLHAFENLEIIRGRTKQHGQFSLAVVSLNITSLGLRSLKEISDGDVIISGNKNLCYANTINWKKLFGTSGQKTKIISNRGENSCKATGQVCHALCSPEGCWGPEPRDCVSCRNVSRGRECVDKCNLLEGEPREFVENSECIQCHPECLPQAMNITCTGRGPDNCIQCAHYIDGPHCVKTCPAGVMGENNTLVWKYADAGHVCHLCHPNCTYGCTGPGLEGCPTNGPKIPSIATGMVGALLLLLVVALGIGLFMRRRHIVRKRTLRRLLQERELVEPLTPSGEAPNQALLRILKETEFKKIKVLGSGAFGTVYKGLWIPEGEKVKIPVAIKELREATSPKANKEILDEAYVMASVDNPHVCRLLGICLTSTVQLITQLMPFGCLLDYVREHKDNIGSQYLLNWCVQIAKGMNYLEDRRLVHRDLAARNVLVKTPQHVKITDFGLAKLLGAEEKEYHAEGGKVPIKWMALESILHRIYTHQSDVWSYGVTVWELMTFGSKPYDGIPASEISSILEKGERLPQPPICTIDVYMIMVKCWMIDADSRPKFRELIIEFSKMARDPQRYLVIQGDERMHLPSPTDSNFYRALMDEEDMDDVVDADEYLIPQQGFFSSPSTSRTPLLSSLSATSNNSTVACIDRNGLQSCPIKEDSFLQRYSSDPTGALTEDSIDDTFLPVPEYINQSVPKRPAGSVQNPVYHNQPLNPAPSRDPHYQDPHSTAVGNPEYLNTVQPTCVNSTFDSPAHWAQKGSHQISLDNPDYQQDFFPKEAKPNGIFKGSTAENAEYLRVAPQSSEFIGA

In the case of COc1cc(Cn2ccc3c(Nc4cccc(Br)c4)nc(N)nc32)cc(OC)c1OC, the IC50 [1] is reported as greater than 200 µM, the IC50 [2] is reported as 1.8 µM and the IC50 [3] is reported as 156 µM. The IC50 [4] was 25.7 µM.
For Nc1nc(Nc2cccc(Br)c2)c2ccn(Cc3ccc(-c4ccccc4)cc3)c2n1, the IC50 [1] was greater than 200 µM, the IC50 [2] was 129 µM and the IC50 [3] was greater than 200 µM. For the same compound, the IC50 [4] was 22.9 µM.
Nc1nc(Nc2cccc(Br)c2)c2ccn(Cc3ccc4ccccc4c3)c2n1 gave an IC50 [1] greater than 200 µM, an IC50 [2] of 212 µM and an IC50 [3] of 50.8 µM. It also gave an IC50 [4] of 22.9 µM.
For Cc1[nH]c(/C=C2\C(=O)Nc3ccccc32)c(C)c1CCC(=O)O [ORANTINIB], the TGI (COLO 205 [5]) was “Active”, the Activity (COLO 205 [6]) was “Active” and the Activity (COLO 205 [7]) was “inactive”. The MTD (Mus musculus) was 10 mg/kg.
Nc1nc(Nc2cccc(Br)c2)c2ccn(Cc3ccc(Cl)cc3)c2n1 showed an IC50 [1] of 99.9 µM, an IC50 [2] greater than 500 µM and an IC50 [3] of 79.9 µM. For the same compound, the IC50 [4] was 65.3 µM.
With COc1ccc(OC)c(Cn2ccc3c(Nc4cccc(Br)c4)nc(N)nc32)c1 the IC50 [1] was 69.2 µM, the IC50 [3] was greater than 200 µM and the IC50 [4] was greater than 200 µM.
Compound Nc1nc(Nc2cccc(Br)c2)c2ccn(Cc3ccc(Cl)c(Cl)c3)c2n1 has an IC50 [1] greater than 200 µM, an IC50 [2] of 230 µM and an IC50 [3] of 119 µM. For the same compound, the IC50 [4] was 64.5 µM.
In the case of Nc1nc(Nc2cccc(Br)c2)c2cc(Cc3ccc(Cl)cc3)[nH]c2n1, the IC50 [8] is reported as 8.28 µM, the IC50 [9] is reported as greater than 50 µM and the IC50 [10] is reported as 42.7 µM.
Nc1nc(Nc2cccc(Br)c2)c2ccn(Cc3ccccc3)c2n1 gave an IC50 [1] of 166 µM, an IC50 [2] greater than 500 µM and an IC50 [3] of 99.3 µM. The IC50 [4] was 23.8 µM.
Nc1nc(Nc2cccc(Br)c2)c2cc(Cc3ccc(Cl)c(Cl)c3)[nH]c2n1 gave an IC50 [9] greater than 50 µM.
Nc1nc(Nc2cccc(Br)c2)c2ccn(Cc3cccc4ccccc34)c2n1 gave an IC50 [1] greater than 200 µM, an IC50 [2] of 129 µM and an IC50 [3] of 150 µM. For the same compound, the IC50 [4] was 14.9 µM.
In the case of Nc1nc(Nc2cccc(Br)c2)c2ccn(Cc3ccccc3Cl)c2n1, the Activity (COLO 205 [11]) is reported as “Active”, the TGI (COLO 205 [12]) is reported as “Active” and the IC50 [1] is reported as greater than 200 µM. The Activity (COLO 205 [13]) was “Active”, the IC50 [2] was 1.5 µM and the IC50 [3] was 126 µM. The IC50 [4] was 17.9 µM and the MTD at 1008 h [14] was 35 mg/kg.
Nc1nc(Nc2cccc(Br)c2)c2ccn(Cc3ccc(Cl)cc3Cl)c2n1 showed an IC50 [1] greater than 200 µM, an IC50 [2] of 34.2 µM and an IC50 [3] of 138 µM. For the same compound, the IC50 [4] was greater than 200 µM.
In the case of Cc1ccccc1Cn1ccc2c(Nc3cccc(Br)c3)nc(N)nc21, the IC50 [1] is reported as 113 µM, the IC50 [2] is reported as 160 µM and the IC50 [3] is reported as 129 µM. For the same compound, the IC50 [4] was 113 µM.
